We go through 13 compounds from article PMC5641120, “Small-molecule inhibitors of PD-1/PD-L1 immune checkpoint alleviate the PD-L1-induced exhaustion of T-cells” (Oncotarget, 2017).

Data set [1] is described as follows: Cytotoxicity (metabolic activity assay) against PD-1 Effector Cells. The following applies: human, PD-1 Effector Cells (modified Jurkat T cells, ECs).
Description: (§2) To define the maximum admissible concentrations of BMS compounds for the use in the cell-based assays, the toxicity of the compounds was evaluated with the use of metabolic activity assay. For this, modified Jurkat T cells (ECs) used in all further assays were exposed to the increasing concentration of the tested compounds for 48 h.
(§3) Figure 2 Cytotoxicity and activity of BMS compounds in PD-1/PD-L1 checkpoint assay (A) Cytotoxicity of BMS compounds against the PD-1 Effector Cells was tested using metabolic activity assay following the 48 h treatment of the cells with the indicated compounds. […] The graphs present relative luminescence normalized to the DMSO-treated controls and are representative of the three independent experiments. (D) The result of the fitting of Hill model to experimental data presented on panels B and C. EC50 values represent half maximal effective concentrations, and RLUmax values represent maximal relative luminescence values, and illustrate the potency of the listed molecules in restoring the activity of ECs in the assay.
(§4) 5 000 ECs were seeded on transparent 96-well plates and cultured for 48 h in the presence of increasing concentrations of the BMS compounds or DMSO as a control (the concentration of DMSO was kept constant in all samples). Following the treatment, a metabolic activity test was performed with the use of Biolog Redox Dye Mix MB (BioLog), according to the manufacturer's instructions.
The target of data set [2] is T1, human PD-L1 (Homo sapiens, UniProt Q9NZQ7).
T1 construct: human PD-L1 (residues 18–134, C-terminal His-tag); His-tag (C); made in house
T1 sequence (Q9NZQ7 18-134): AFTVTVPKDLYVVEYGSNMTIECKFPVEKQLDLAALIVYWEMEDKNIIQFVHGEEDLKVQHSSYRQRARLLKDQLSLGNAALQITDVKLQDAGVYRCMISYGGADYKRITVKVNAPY
The data set is described as follows: 1H-15N HMQC NMR titration of PD-L1. It is filed as binding. The settings on record: 15N labeled PD-L1, line broadening upon compound addition. As to the method:
Based on the two recent Bristol-Myers Squibb patents, the selection of the BMS compounds was done to obtain high diversity of the chemical structures along all modifications of distal, flexible moieties exposed to the solvent (Figure 1A). The compounds were synthesized as described previously with modifications. All compounds were tested for the interaction with PD-L1 using the ^1H-^15N HMQC NMR titration experiment with positive results, as reported elsewhere and in this manuscript (see below). In order to verify the blockade of the PD-1/PD-L1 interaction by the compounds an NMR-based AIDA was performed. Upon the PD-L1 binding the broadening of ^1H-^15N resonance signals of the ^15N labeled PD-1 is observed due to an increased transverse relaxation rate of the higher molecular weight entities. […] All the compounds efficiently disrupted the complex formed by human PD-1 and PD-L1 proteins, as visualized by the restoration of narrow ^1H-^15N signals of PD-1 ([26] and (Figure 1B)).
For further compound development it is of high importance to define the minimal fragments essential for the binding to the target protein. For this, BMS-1166 and its fragments were tested for interaction with PD-L1 using NMR method. From the six decomposition fragments tested, four retained PD-L1 binding potential (Figure 5).
Uniform ^15N labelling was obtained by expressing proteins in the M9 minimal medium containing ^15NH4Cl as the sole nitrogen source. For NMR measurements the buffer was exchanged by gel filtration to PBS pH 7.4 (PD-L1) or 25 mM sodium phosphate containing 100 mM NaCl pH 6.4 (PD-1). 10% (v/v) of D2O was added to the samples to provide the lock signal. All spectra were recorded at 300K using a Bruker Avance III 600 MHz spectrometer. The interaction of the compounds with PD-L1 was evaluated by monitoring the perturbations in chemical shifts of NMR resonances in the ^1H-^15N 2D HMQC upon titration with the compound. The ability of tested compounds to dissociate PD-L1/PD-1 was evaluated using the Antagonist Induced Dissociation Assay (AIDA). In brief, ^15N-labeled PD-1 (0.2 mM) was slightly overtitrated with the unlabeled PD-L1. The compounds were aliquoted into the resulting mixture. During the experiment the ^1H-^15N signals were monitored by the HMQC.

Data set [3] has as its system PD-L1 aAPC/CHO-K1 cells (aAPCs). The data set is described as follows: Toxicity towards aAPCs. It is filed as cell-based. The settings on record: modified CHO-K1 cells (aAPCs), 48 h treatment.
The target in data set [4] is T2, sPD-L1 interaction with PD-1 receptor exposed at the cell surface (Homo sapiens, UniProt Q9NZQ7).
T2 construct: made in house; PD-1 stably overexpressed on Jurkat PD-1 Effector Cells from Promega
T2 sequence (Q9NZQ7 18-134): as above
The data set is described as follows: Flow cytometry binding of fluorescently labeled sPD-L1 (PD-L1-Atto) to PD-1 expressing cells. It is filed as cell-based. The settings on record: PD-L1-Atto 1.5 μM pre-incubated with 1 μM BMS compound or 125 μg/ml antibody. The method, then:
To test if the observed effect of BMS compounds was directly associated with the decreased sPD-L1 recruitment to the cell surface of the PD-1-expressing cells, a His-tagged sPD-L1 was labeled with the Ni-NTA-conjugated fluorescent dye and flow cytometry analysis was performed. When ECs were contacted with labeled sPD-L1, a clear staining was observed (Figure 3B).
Binding of sPD-L1 (aa 18–134) to ECs was evaluated by flow cytometry. The His-tagged PD-L1 protein or its mutants were stained with NTA-Atto 647 N fluorescent dye (Sigma Aldrich) for 2 h at 22°C, at 8:1 molar ratio (protein:dye). PD-L1-Atto was formulated in 150 μl PBS with the tested compounds or antibodies. The samples were incubated for 30 min at 4°C in the dark. Meanwhile, ECs were centrifuged, washed with PBS and suspended in fresh PBS at concentration of 1 × 10^6 cells per ml. 50 μl of ECs was added to each sample and incubated on ice for additional 60 min. The final concentrations of the components were: 25 μg/ml of PD-L1 (1.5 μM), 125 μg/ml the anti-PD-L1 antibodies and control antibodies and 1 μM of the BMS compounds. The samples were analyzed using the BD FACS Verse flow cytometer and BD FACSuite v1.0.6 software.

For data set [5], the target named is T3, sPD-L1 (Homo sapiens, UniProt Q9NZQ7).
T3 construct: human PD-L1 (residues 18–134, C-terminal His-tag); His-tag (C); made in house
T3 sequence (Q9NZQ7 18-134): as above
The data set is described as follows: Complex analysis by gel filtration (size exclusion chromatography). The following applies: inhibitor:protein 3:1 molar ratio. The method, then:
(§1) The formation of solution-stable PD-L1 dimers in the presence of BMS compounds was characterized previously for BMS-202 [26]. The crystal structures of BMS-1001 and −1166 bound to PD-L1 indicated similar properties of the compounds, but this required verification by in-solution assays. […] This was verified by a crosslinking experiment. sPD-L1 preincubated in the presence of a cross-linking agent (bis(sulfosuccinimidyl)suberate, BS3) migrated in SDS-PAGE as a single band corresponding to […] protein.
Superdex S75 10/30 HR column was equilibrated with 10 mM Tris pH 8.0 containing 20 mM NaCl. The column was calibrated with globular protein standards. The retention time of hPD-L1 (4 mg/ml) was determined. hPD-L1/inhibitor complexes were formed at 3:1 (inhibitor:protein) molar ratio, incubated for 15 min at room temperature and clarified by centrifugation for 10 min at 15 000 × g. The samples were analyzed in the same manner as the apo-hPD-L1.

The next data set concerns PD-1/sPD-L1. The data set is described as follows: PD-1/sPD-L1 effector assay (anti-CD3 activated ECs, luciferase). It is filed as cell-based, human. The settings on record: anti-CD3, sPD-L1 0.6 μM, BMS compounds 0.12-3 μM; highest concentrations = 2- and 5-fold molar excess over sPD-L1; 24 h.
Data set [6] concerns PD-1/PD-L1 immune checkpoint. Nature of the data set: PD1/PD-L1 checkpoint assay (ECs co-cultured with aAPCs, NFAT-luciferase reporter). It is filed as cell-based, human. The following applies: for effect on luciferase reporter expression (in words): ECs co-cultured with aAPCs; for RLUmax (maximal relative luminescence): Hill fit, luminescence normalized to DMSO-treated controls; for EC50: Hill fit of luciferase activity, 6 h co-culture of ECs and aAPCs.
Excerpt: A T lymphocyte-like cell line (Jurkat) modified to constitutively express PD-1 and carrying a luciferase reporter gene driven by TCR-inducible NFAT response element (Effector Cells, ECs) was used in T cell activation experiments. When antigen-presenting surrogate CHO cells, constitutively expressing the TCR agonist and PD-L1 (aAPCs) are presented to these ECs in co-culture, TCR signaling is repressed by PD-1 and the reporter remains silenced. Agents efficiently interfering with the PD-1/PD-L1 interaction activate the expression of the reporter gene resulting in the increase in luminescence intensity.
To verify the potency of BMS compounds in the inhibition of the PD-1/PD-L1 interactions, a cell-based model of the PD-1/PD-L1 immune checkpoint blockade was used. In the assay, two model cell lines are utilized: the artificial Antigen-Presenting Cells (PD-L1^+ aAPC/CHO-K1 cells, called aAPCs) overexpressing TCR ligand and PD-L1, and T cell surrogate, a modified Jurkat T cell line overexpressing PD-1 and carrying a luciferase reporter under the control of NFAT promoter (PD-1 Effector Cells, called ECs) [30]. […] Additionally, the cells were propagated in a constant presence of Hygromycin B (50 μg/ml) and G418 (250 μg/ml) to provide a stable expression of the introduced genetic constructs. The two latter antibiotics were omitted in the experiments. Overexpression of PD-1 on ECs and PD-L1 on aAPCs was verified by flow cytometry (not shown) and the presence of the luciferase-expressing gene was verified by monitoring luciferase activity following anti-CD3 antibody stimulation. Antibiotic selection, flow cytometry and reporter expression served as cell line authentication method. The cells were periodically tested and found negative for Mycoplasma contamination using PCR-based method [31].
The aAPCs were seeded in white 96-well plates at the density of 10 000 per well in the culture medium 24 h prior to the assay. […] By this, the concentration of DMSO was kept constant in all samples. 95 μl of the medium was removed from the wells and the cells were overlaid with 40 μl of the compound dilutions. […] Following 6 h incubation at 37°C, the plates were equilibrated at room temperature for 10 min and 80 μl of the Bio-Glo reagent (Promega) was added to each well. After incubation for 10 min, luminescence was quantified using FlexStation 3 (Molecular Devices). Half maximal effective concentrations (EC50) and maximal luminescence values (RLUmax) were determined by fitting the Hill equation to the experimental data.

In data set [7] the target is T3, sPD-L1. The data set is described as follows: BS3 cross-linking experiment (SDS-PAGE). The following applies: hPD-L1 10 μM, compound 1:1 molar ratio. As to the method:
as §1
hPD-L1 was concentrated to 10 μM in PBS pH 7.4 and mixed with BMS-1001 or BMS-1166 in the 1:1 molar ratio, followed by the addition of the BS3 cross-linking reagent at 0.25, 0.5 or 1mM final concentration (Thermo Scientific). After 30-min incubation at room temperature, the reaction was quenched by the addition of Tris pH 7.5 to the final concentration of 25 mM. Control sample contained hPD-L1 and 1 mM BS3 reagent. The samples were analyzed by SDS-PAGE.

Data set [8] concerns PD-1 Effector Cells (modified Jurkat T cells, ECs). The data set is described as follows: Cytotoxicity (metabolic activity assay) against PD-1 Effector Cells. The following applies: ECs, 48 h treatment, metabolic activity assay.
Description: as §2, §3, §4
The target in a further data set is T4, human PD-1/PD-L1 complex (Homo sapiens, UniProt Q9NZQ7).
T4 construct: human PD-L1 (residues 18–134, C-terminal His-tag); His-tag (C); made in house
T4 sequence (Q9NZQ7 18-134, one chain of several): as the sequence (Q9NZQ7 18-134) above
Also on record: method as in PMID 27083005. The following applies: shown previously; cited from earlier work.

Data set [9] addresses T1, human PD-L1. Also noted: method as in PMID 27083005. The following applies: shown previously; cited from earlier work.

Description for PD-1/sPD-L1: To evaluate the potential of BMS compounds in abrogating the inhibitory effect of sPD-L1 on the activation of T cells, sPD-L1 was pre-incubated with tested compounds and presented to ECs together with the anti-CD3-activating antibody.
For the evaluation of the BMS impact on T cell inhibition by soluble PD-L1, the ECs were stimulated with the anti-CD3 antibody in the presence of the recombinant human sPD-L1. For this, the 96-well white flat bottom plates were coated overnight at 4°C with 5 μg/ml of the anti-CD3 antibody or the isotype control solution in PBS. […] Then, 15 μl of the solution was added to each well of the antibody-coated plate. ECs were centrifuged and diluted to 50 000 per ml, and 60 μl of the cell solution was added to each well. The final concentration of sPD-L1 was 10 μg/ml (0.6 μM). The final concentrations of the BMS compounds were: 0.12, 0.3, 1.2 and 3 μM, giving the following BMS:sPD-L1 molar ratios: 1:5, 1:2, 2:1 and 5:1. The cells were cultured for 24 h and the luciferase activity assay was performed using the Bio-Glo Luciferase Assay System (Promega) according to the manufacturer's instructions.

In data set [1], `Cc1cc(CN[C@H](CO)C(=O)O)c(OCc2cccc(C#N)c2)cc1OCc1cccc(-c2ccc3c(c2)OCCO3)c1C` [BMS-1001] showed an EC50 at 48 h of 33400 nM. The “interaction with PD-L1 (1H-15N HMQC NMR)” value on human PD-L1 [2] is listed as “induced linewidth broadening”. Besides, the “toxicity (in words)” value in data set [3] was “Low toxicity”. The “staining of ECs by labeled sPD-L1 (in words)” value (“staining of ECs” below) in data set [4] is listed as “significantly decreased the intensity of staining”. Further, the “sPD-L1 retention time in size exclusion chromatography” value on sPD-L1 [5] was “significantly shortened”. In addition, in the data set with PD-1/sPD-L1, the “restoration of sPD-L1-suppressed activation of ECs (in words)” value (shortened to “restoration”) is “completely restored cell activation”. In data set [6], the “effect on luciferase reporter expression (in words)” value (“effect” for short) is “dose-dependently induced the activity of luciferase” and the “RLUmax (maximal relative luminescence)” value amounted to 1.88 ± 0.16. Also, the concentration for a half-maximal effect (EC50) in data set [6] (Homo sapiens) was found to be 253 ± 120 nM. In addition, the “sPD-L1 dimer formation by cross-linking (SDS-PAGE)” value at sPD-L1 [7] is “two bands in SDS-PAGE analysis, corresponding to sPD-L1 monomer and a dimer”.
For the compound `Cc1c(COc2cc(F)c(CNC[C@@H](O)CC(=O)O)cc2F)cccc1-c1ccc2c(c1)OCCO2` [BMS-200], the “toxicity (in words)” value in data set [8] is reported as “moderate toxicity”. Besides, the “effect” value in data set [6] is “did not affect the reporter expression”.
As for `Cc1c(COc2cc(OCc3cccc(C#N)c3)c(C=O)cc2Cl)cccc1-c1ccc2c(c1)OCCO2` [compound 2], at human PD-L1 [2], the “interaction with PD-L1 (1H-15N HMQC NMR)” value was “active”.
For atezolizumab: anti-PD-L1 antibody, the “staining of ECs” value in [4] is listed as “significantly decreased the staining”. Moreover, in [6], the response was half-maximal at 0.42 ± 0.049 nM (EC50) and the “RLUmax (maximal relative luminescence)” value is 2.72 ± 0.02.
In the case of durvalumab: anti-PD-L1 antibody, in data set [4], the “staining of ECs” value is “significantly decreased the staining”. Also, in data set [6], the EC50 was 0.333 ± 0.068 nM and the “RLUmax (maximal relative luminescence)” value came to 2.94 ± 0.08.
Regarding `Cc1cccc(CBr)c1C` [compound 6], on human PD-L1 [2], the “interaction with PD-L1 (1H-15N HMQC NMR)” value is “not-active”.
As to `Cc1c(COc2cc(OCc3cccc(C#N)c3)c(CN3C[C@H](O)C[C@@H]3C(=O)O)cc2Cl)cccc1-c1ccc2c(c1)OCCO2` [BMS-1166], the “interaction with PD-L1 (1H-15N HMQC NMR)” value on human PD-L1 [2] is “induced linewidth broadening”. Also, at human PD-L1 [2] (listed as 1), the “interaction with PD-L1 (1H-15N HMQC NMR)” value is reported as “active”. The “toxicity (in words)” value in [3] was “Low toxicity”. Moreover, in [4], the “staining of ECs” value is “significantly decreased the intensity of staining”. Moreover, in [6], the “effect” value was “dose-dependently induced the activity of luciferase” and the “RLUmax (maximal relative luminescence)” value came to 1.72 ± 0.03. Besides, the 50% effective concentration (EC50) in data set [6] (Homo sapiens) came to 276 ± 29 nM.
With nivolumab: anti-PD-1 antibody, the “restoration” value in the data set with PD-1/sPD-L1 is on record as “abrogated the effect of sPD-L1”.
On to `Cc1c(COc2cc(O)c(C=O)cc2Cl)cccc1-c1ccc2c(c1)OCCO2` [compound 3], for which, on human PD-L1 [2], the “interaction with PD-L1 (1H-15N HMQC NMR)” value was “active”.
In [1], `COc1cc(OCc2cccc(-c3ccccc3)c2C)cc(OC)c1CN[C@@H](CO)C(C)C` [BMS-242] had a 50% effective concentration (EC50) at 48 h of 3000 to 6000 nM. Besides, the “restoration” value in the data set on PD-1/sPD-L1 is reported as “unspecific decrease in the readout level”.
As to `c1ccc2c(c1)OCCO2` [compound 5], the “interaction with PD-L1 (1H-15N HMQC NMR)” value on human PD-L1 [2] was “not-active”.
With `Cc1c(COc2ccc(CN3CCCCC3C(=O)O)cc2Br)cccc1-c1ccccc1` (stereo not drawn) [BMS-8], the “dissociation of human PD-1/PD-L1 complex in vitro” value on human PD-1/PD-L1 complex was “efficiently dissociate the human PD-1/PD-L1 complex”. The “toxicity (in words)” value in [8] is recorded as “moderate toxicity”. The “binding to PD-L1” value on human PD-L1 [9] is “bind to PD-L1”.
Regarding `Cc1c(CO)cccc1-c1ccc2c(c1)OCCO2` [compound 4], the “interaction with PD-L1 (1H-15N HMQC NMR)” value at human PD-L1 [2] was “active”.
